# Test results taken from patent publication US10059713B2 (Takeda Pharmaceutical Company Limited, priority 2014, dated 2018).
# Target: human GPR43 (Homo sapiens (Human), UniProt O15552)
# Assay: Ca-Flux functional assay: determination of agonist/positive allosteric modulator (PAM) activity
# Type: cell-based
# Details: CHO-K1 Gα16 cells stably expressing human GPR43; compound added with EC20 sodium acetate; intracellular Ca2+ by FLIPR; does not distinguish agonist from PAM
# How it was run: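 CHO-K1 Gα16 cells stably expressing human GPR43, loaded with Calcium 5 dye 1 h; compounds (10-point half-log from 10 μM) added with sodium acetate at EC20. FLIPR calcium signal gave EC50, two wells per point; agonists and PAMs not distinguished.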
# Chain of human GPR43 (O15552 whole entry): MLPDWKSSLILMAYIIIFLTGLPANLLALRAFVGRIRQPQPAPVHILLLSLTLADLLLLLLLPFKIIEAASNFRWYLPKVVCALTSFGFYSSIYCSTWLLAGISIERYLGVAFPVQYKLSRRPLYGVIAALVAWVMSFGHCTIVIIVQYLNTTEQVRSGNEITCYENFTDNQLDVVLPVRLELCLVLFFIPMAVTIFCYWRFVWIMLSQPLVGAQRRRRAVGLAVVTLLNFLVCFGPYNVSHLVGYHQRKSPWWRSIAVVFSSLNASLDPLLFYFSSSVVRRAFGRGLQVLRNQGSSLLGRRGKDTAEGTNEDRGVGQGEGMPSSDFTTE
row,Structure (SMILES),EC50 [nM]
1,"Cc1nc(C2CCC(F)(F)CC2)c2[nH]c(N)c(S(=O)(=O)c3ccccc3)c2n1 [Example 183, 7-(benzenesulfonyl)-4-(4,4-difluorocyclohexyl)-2-methyl-5H-pyrrolo[3,2-d]pyrimidin-6-amine]",173
2,"COC1CCN(c2ncnc3c(S(=O)(=O)c4ccccc4)c(N)[nH]c23)C1 (centres unmarked) [Example 117, 7-(benzenesulfonyl)-4-(3-methoxypyrrolidin-1-yl)-5H-pyrrolo[3,2-d]pyrimidin-6-amine]",3320
3,"Nc1[nH]c2c(OC3CCCCC3)ncnc2c1S(=O)(=O)c1ccccc1 [Example 160, 7-(benzenesulfonyl)-4-(cyclohexyloxy)-5H-pyrrolo[3,2-d]pyrimidin-6-amine]",39
4,"CCC1CN(c2ncnc3c(S(=O)(=O)c4ccccc4)c(N)[nH]c23)CCO1 (centres unmarked) [Example 79, 7-(benzenesulfonyl)-4-(2-ethylmorpholin-4-yl)-5H-pyrrolo[3,2-d]pyrimidin-6-amine]",40
5,"Nc1[nH]c2c(C3CCCCC3)nc(C3CC3)nc2c1S(=O)(=O)c1ccccc1 [Example 131, 7-(benzenesulfonyl)-4-cyclohexyl-2-cyclopropyl-5H-pyrrolo[3,2-d]pyrimidin-6-amine]",166
6,"CC(C)Oc1ccc(S(=O)(=O)c2c(N)[nH]c3c(N4CCOC(C)C4)ncnc23)cc1 (centres unmarked) [Example 126, 4-(2-methylmorpholin-4-yl)-7-[4-(propan-2-yloxy)benzenesulfonyl]-5H-pyrrolo[3,2-d]pyrimidin-6-amine]",53
7,"CC1CN(c2ncnc3c(S(=O)(=O)Cc4ccccc4)c(N)[nH]c23)CCO1 (centres unmarked) [Example 125, 4-(2-methylmorpholin-4-yl)-7-phenylmethanesulfonyl-5H-pyrrolo[3,2-d]pyrimidin-6-amine]",5520

# Results, then the compound that gave them:
row,EC50 [nM],Structure (SMILES)
1,2660,"CCN(CC1CCOCC1)c1ncnc2c(S(=O)(=O)c3ccccc3)c(N)[nH]c12 [Example 188, 7-(benzenesulfonyl)-4-N-ethyl-4-N-(oxan-4-ylmethyl)-5H-pyrrolo[3,2-d]pyrimidine-4,6-diamine]"
2,3,Cc1nc(N2CCO[C@@H](C(F)(F)F)C2)c2[nH]c(N)c(S(=O)(=O)c3cc(F)ccc3F)c2n1 [Example 291]
3,3,"Cc1nc(N2CCOC(C)(C(F)(F)F)C2)c2[nH]c(N)c(S(=O)(=O)c3ccccc3F)c2n1 (centres unmarked) [Example 303, 7-(2-fluorobenzenesulfonyl)-2-methyl-4-[2-methyl-2-(trifluoromethyl)morpholin-4-yl]-5H-pyrrolo[3,2-d]pyrimidin-6-amine]"
4,53,"Cc1nc(OC2CCCOC2(C)C)c2[nH]c(N)c(S(=O)(=O)c3ccccc3F)c2n1 (centres unmarked) [Example 296, 4-[(2,2-dimethyloxan-3-yl)oxy]-7-(2-fluorobenzenesulfonyl)-2-methyl-5H-pyrrolo[3,2-d]pyrimidin-6-amine]"
